Test results published in patent EP4578856A1, “HETEROCYCLIC COMPOUND” (Ubience Inc., priority 2022, dated 2024).

Biological target: ROCK2 protein (Homo sapiens, UniProt O75116)
Experiment: Degradation inducing activity of ROCK2 protein in HUVEC cells, Western blotting (Simple Western JESS)
Type: cell-based
Set-up: endogenous in cells; host or cells: HUVEC (ATCC CRL-1730)
Conditions: HUVEC, 24 h; for inhibition at 1 µM: degradation rate at 1 µM; for inhibition at 10 µM: degradation rate at 10 µM
Description: In vitro degradation inducing activity of ROCK2 protein of compounds of Examples was evaluated by Western Blotting (WB).
By a test compound, 10 mM DMSO solution was prepared, which was used as a 10 µM test compound solution. Further, the solution was diluted 10-fold with DMSO to prepare a 1 mM solution, which was used as a 1 µM test compound solution.
HUVEC cells (ATCC: CRL-1730, Lot: 70041472) were cultured in F-12K medium supplemented with 10% FBS, 0.1 mg/mL heparin, […] Endothelial Cell Growth Supplement (ECGS, Corning), and 1% Penicillin/Streptomycin. The HUVEC cells seeded in a 24 well plate at 50,000 cells/well/1 mL were cultured for 24 hours, and then 1 µL of DMSO or a test compound solution was added thereto and treatment was performed for 24 hours. Cells were harvested and lysed for 20 minutes on ice using lysis buffer (Cell Signaling Technology, Cat#9803) supplemented with protease inhibitor cocktail (Sigma, Cat#P8340; Roche, Cat#P11873580001), and phosphatase inhibitor cocktail (Sigma, Cat#P5726, P0044). The lysate was sonicated (15 seconds, amplitude 30%, 1 cycle) and then centrifuged at 12500 rpm for 15 minutes at 4°C. The protein concentration was determined by BCA assay kit (Thermo Fisher Scientific, Cat#23225).
The western blotting was performed using Simple Western JESS (protein simple). A cell lysis sample (protein amount; about 1.06 µg) was loaded on a plate of Simple Western JESS, and the expression level of ROCK2 protein was detected using a 12-230 kDa Wes Separation Module (Protein simple, Cat#SM-WO04), an Anti-Rabbit Detection Module for Wes (Protein simple, Cat#DM-001), and a Total Protein Detection Module for Wes (Protein simple, Cat#DM-TP01). As the primary antibody, a material obtained by diluting ROCK2 (D1B1) Rabbit mAb (Cell Signaling Technology, Cat#9029) at 1:10 was used, and as the secondary antibody, a material obtained by diluting HRP-labeled anti-rabbit IgG antibody (Cell Signaling Technology, Cat#7074S) at 1:100 was used. The expression level of the target protein was standardized using the total protein amount loaded as a reference. The standardized expression level data of the control (DMSO) was taken as 100%, and the degradation rate (%) was calculated from the average standardized expression level data of the test compound. All analysis steps, such as data detection and analysis, are fully automated.
With respect to the ROCK2 protein degradation rate of the test compound, the protein degradation rates (%) at the evaluation concentrations were set to A ≥ 75%, 75% > B ≥ 50%, 50% > C ≥ 25%, and D < 25%, and are shown in Table 7.

ROCK2 protein, sequence (O75116 whole entry): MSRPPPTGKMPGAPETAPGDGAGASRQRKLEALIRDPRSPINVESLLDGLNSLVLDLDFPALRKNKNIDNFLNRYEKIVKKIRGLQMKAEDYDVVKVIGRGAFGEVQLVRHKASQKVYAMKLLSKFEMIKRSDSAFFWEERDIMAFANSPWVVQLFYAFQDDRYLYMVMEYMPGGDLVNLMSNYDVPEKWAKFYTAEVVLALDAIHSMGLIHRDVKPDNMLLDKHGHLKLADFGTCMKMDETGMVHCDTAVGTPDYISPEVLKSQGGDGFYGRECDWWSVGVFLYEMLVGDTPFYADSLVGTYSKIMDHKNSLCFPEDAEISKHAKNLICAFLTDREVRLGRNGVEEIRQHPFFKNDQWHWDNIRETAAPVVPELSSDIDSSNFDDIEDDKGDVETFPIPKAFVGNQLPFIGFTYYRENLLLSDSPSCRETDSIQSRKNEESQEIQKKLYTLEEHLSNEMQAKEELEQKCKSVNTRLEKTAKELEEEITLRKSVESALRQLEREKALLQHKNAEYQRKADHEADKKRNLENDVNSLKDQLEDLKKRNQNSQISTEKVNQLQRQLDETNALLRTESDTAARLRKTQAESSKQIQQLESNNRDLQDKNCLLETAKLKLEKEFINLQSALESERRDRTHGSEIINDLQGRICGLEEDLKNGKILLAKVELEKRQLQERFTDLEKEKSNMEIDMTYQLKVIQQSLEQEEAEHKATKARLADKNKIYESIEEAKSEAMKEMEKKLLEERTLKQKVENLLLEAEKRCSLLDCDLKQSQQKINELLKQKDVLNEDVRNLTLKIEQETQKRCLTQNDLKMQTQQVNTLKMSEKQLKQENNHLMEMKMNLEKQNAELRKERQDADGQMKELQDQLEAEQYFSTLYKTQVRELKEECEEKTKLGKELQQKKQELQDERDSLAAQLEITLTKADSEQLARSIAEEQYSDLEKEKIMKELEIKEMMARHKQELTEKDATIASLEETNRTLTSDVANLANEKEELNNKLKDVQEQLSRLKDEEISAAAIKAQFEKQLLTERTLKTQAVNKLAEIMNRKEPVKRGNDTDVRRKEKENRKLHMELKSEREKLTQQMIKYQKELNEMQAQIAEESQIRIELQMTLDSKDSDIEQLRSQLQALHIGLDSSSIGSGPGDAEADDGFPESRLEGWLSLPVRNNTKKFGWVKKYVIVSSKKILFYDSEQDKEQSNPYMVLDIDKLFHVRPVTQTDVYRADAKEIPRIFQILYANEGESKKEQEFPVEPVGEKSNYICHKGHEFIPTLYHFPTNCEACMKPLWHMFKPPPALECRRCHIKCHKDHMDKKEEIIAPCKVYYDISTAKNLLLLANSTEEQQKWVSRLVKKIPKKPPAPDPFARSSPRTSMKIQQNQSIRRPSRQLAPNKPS

Row | SMILES | inhibition at 1 µM | inhibition at 10 µM
1 | C[C@@H]1CN(CC(=O)N2CC(C)(C)c3ncc(Cc4ccc(F)cc4)cc32)[C@@H](CN(C)CCOCCN[C@H](C)c2ccc(C(=O)Nc3ccncc3)cc2)CN1 [Example 1, 4-((R)-1-((2-(2-((((2R,5R)-1-(2-(6-(4-Fluorobenzyl)-3,3-dimethyl-2,3-dihydro-1H-pyrrolo[3,2-b]pyridin-1-yl)-2-oxoethyl)-5-methylpiperazin-2-yl)methyl)(methyl)amino)ethoxy)ethyl)amino)ethyl)-N-(pyridin-4-yl)benzamide] | 25 to 50% | ≥ 75%
2 | C[C@@H]1CN(CC(=O)N2CC(C)(C)c3ncc(Cc4ccc(F)cc4)cc32)[C@@H](CN(C)CCOCCOCCN[C@H](C)c2ccc(C(=O)Nc3ccncc3)cc2)CN1 [Example 2, 4-((R)-1-((2R,5R)-1-(2-(6-(4-Fluorobenzyl)-3,3-dimethyl-2,3-dihydro-1H-pyrrolo[3,2-b]pyridin-1-yl)-2-oxoethyl)-5-methylpiperazin-2-yl)-2-methyl-5,8-dioxa-2,11-diazatridecan-12-yl)-N-(pyridin-4-yl)benzamide] | < 25% | 50 to 75%
3 | C[C@@H]1CN(CC(=O)N2CC(C)(C)c3ncc(Cc4ccc(F)cc4)cc32)[C@@H](CN(C)CCOCCOCCOCCOCCN[C@H](C)c2ccc(C(=O)Nc3ccncc3)cc2)CN1 [Example 4, 4-((R)-1-((2R,5R)-1-(2-(6-(4-Fluorobenzyl)-3,3-dimethyl-2,3-dihydro-1H-pyrrolo[3,2-b]pyridin-1-yl)-2-oxoethyl)-5-methylpiperazin-2-yl)-2-methyl-5,8,11,14-tetraoxa-2,17-diazanonadecan-18-yl)-N-(pyridin-4-yl)benzamide] | ≥ 75% | ≥ 75%
4 | C[C@@H]1CN(CC(=O)N2CC(C)(C)c3ncc(Cc4ccc(F)cc4)cc32)[C@@H](CN(C)CCOCCOCCOCCOCCOCCN[C@H](C)c2ccc(C(=O)Nc3ccncc3)cc2)CN1 [Example 5, 4-((R)-1-((2R,5R)-1-(2-(6-(4-Fluorobenzyl)-3,3-dimethyl-2,3-dihydro-1H-pyrrolo[3,2-b]pyridin-1-yl)-2-oxoethyl)-5-methylpiperazin-2-yl)-2-methyl-5,8,11,14,17-pentaoxa-2,20-diazadocosan-21-yl)-N-(pyridin-4-yl)benzamide] | 25 to 50% | < 25%
5 | C[C@@H]1CN(CC(=O)N2CC(C)(C)c3ncc(Cc4ccc(F)cc4)cc32)[C@@H](CN(C)CCOCCOCCOCCOCCOCCOCCN[C@H](C)c2ccc(C(=O)Nc3ccncc3)cc2)CN1 [Example 6, 4-((R)-1-((2R,5R)-1-(2-(6-(4-Fluorobenzyl)-3,3-dimethyl-2,3-dihydro-1H-pyrrolo[3,2-b]pyridin-1-yl)-2-oxoethyl)-5-methylpiperazin-2-yl)-2-methyl-5,8,11,14,17,20-hexaoxa-2,23-diazapentacosan-24-yl)-N-(pyridin-4-yl)benzamide] | 50 to 75% | ≥ 75%
6 | C[C@@H]1CN(CC(=O)N2CC(C)(C)c3ncc(Cc4ccc(F)cc4)cc32)[C@@H](CN(C)CCOCCOCCOCCOCCOCCOCCOCCN[C@H](C)c2ccc(C(=O)Nc3ccncc3)cc2)CN1 [Example 7, 4-((R)-1-((2R,5R)-1-(2-(6-(4-Fluorobenzyl)-3,3-dimethyl-2,3-dihydro-1H-pyrrolo[3,2-b]pyridin-1-yl)-2-oxoethyl)-5-methylpiperazin-2-yl)-2-methyl-5,8,11,14,17,20,23-heptaoxa-2,26-diazaoctacosan-27-yl)-N-(pyridin-4-yl)benzamide] | 50 to 75% | 50 to 75%

More lines, now with the values ahead:

Row | inhibition at 1 µM | inhibition at 10 µM | SMILES
7 | 25 to 50% | ≥ 75% | C[C@@H]1CN(CC(=O)N2CC(C)(C)c3ncc(Cc4ccc(F)cc4)cc32)[C@@H](CN(C)CCOCCN[C@H](Cc2cccc(F)c2)C(=O)Nc2ccc(-c3ccncc3)cc2)CN1 [Example 8, (R)-2-((2-(2-((((2R,5R)-1-(2-(6-(4-Fluorobenzyl)-3,3-dimethyl-2,3-dihydro-1H-pyrrolo[3,2-b]pyridin-1-yl)-2-oxoethyl)-5-methylpiperazin-2-yl)methyl) (methyl)amino)ethoxy)ethyl)amino)-3-(3-fluorophenyl)-N-(4-(pyridin-4-yl)phenyl)propanamide]
8 | 25 to 50% | ≥ 75% | C[C@@H]1CN(CC(=O)N2CC(C)(C)c3ncc(Cc4ccc(F)cc4)cc32)[C@@H](CN(C)CCOCCOCCOCCN[C@H](Cc2cccc(F)c2)C(=O)Nc2ccc(-c3ccncc3)cc2)CN1 [Example 10, (R)-15-(3-Fluorobenzyl)-1-((2R,5R)-1-(2-(6-(4-fluorobenzyl)-3,3-dimethyl-2,3-dihydro-1H-pyrrolo[3,2-b]pyridin-1-yl)-2-oxoethyl)-5-methylpiperazin-2-yl)-2-methyl-N-(4-(pyridin-4-yl)phenyl)-5,8,11-trioxa-2,14-diazahexadecan-16-amide]
9 | 50 to 75% | ≥ 75% | C[C@@H]1CN(CC(=O)N2CC(C)(C)c3ncc(Cc4ccc(F)cc4)cc32)[C@@H](CN(C)CCOCCOCCOCCOCCN[C@H](Cc2cccc(F)c2)C(=O)Nc2ccc(-c3ccncc3)cc2)CN1 [Example 11, (R)-18-(3-Fluorobenzyl)-1-((2R,5R)-1-(2-(6-(4-fluorobenzyl)-3,3-dimethyl-2,3-dihydro-1H-pyrrolo[3,2-b]pyridin-1-yl)-2-oxoethyl)-5-methylpiperazin-2-yl)-2-methyl-N-(4-(pyridin-4-yl)phenyl)-5,8,11,14-tetraoxa-2,17-diazanonadecan-19-amide]
10 | < 25% | 25 to 50% | C[C@@H]1CN(CC(=O)N2CC(C)(C)c3ncc(Cc4ccc(F)cc4)cc32)[C@@H](CN(C)CCOCCOCCOCCOCCOCCN[C@H](Cc2cccc(F)c2)C(=O)Nc2ccc(-c3ccncc3)cc2)CN1 [Example 12, (R)-21-(3-Fluorobenzyl)-1-((2R,5R)-1-(2-(6-(4-fluorobenzyl)-3,3-dimethyl-2,3-dihydro-1H-pyrrolo[3,2-b]pyridin-1-yl)-2-oxoethyl)-5-methylpiperazin-2-yl)-2-methyl-N-(4-(pyridin-4-yl)phenyl)-5,8,11,14,17-pentaoxa-2,20-diazadocosan-22-amide]
11 | < 25% | < 25% | C[C@@H]1CN(CC(=O)N2CC(C)(C)c3ncc(Cc4ccc(F)cc4)cc32)[C@@H](CN(C)CCOCCOCCOCCOCCOCCOCCN[C@H](Cc2cccc(F)c2)C(=O)Nc2ccc(-c3ccncc3)cc2)CN1 [Example 13, (R)-24-(3-Fluorobenzyl)-1-((2R,5R)-1-(2-(6-(4-fluorobenzyl)-3,3-dimethyl-2,3-dihydro-1H-pyrrolo[3,2-b]pyridin-1-yl)-2-oxoethyl)-5-methylpiperazin-2-yl)-2-methyl-N-(4-(pyridin-4-yl)phenyl)-5,8,11,14,17,20-hexaoxa-2,23-diazapentacosan-25-amide]
12 | 25 to 50% | ≥ 75% | C[C@@H]1CN(CC(=O)N2CC(C)(C)c3ncc(Cc4ccc(F)cc4)cc32)[C@@H](CN(C)CCOCCOCCOCCOCCOCCOCCOCCN[C@H](Cc2cccc(F)c2)C(=O)Nc2ccc(-c3ccncc3)cc2)CN1 [Example 14, (R)-27-(3-Fluorobenzyl)-1-((2R,5R)-1-(2-(6-(4-fluorobenzyl)-3,3-dimethyl-2,3-dihydro-1H-pyrrolo[3,2-b]pyridin-1-yl)-2-oxoethyl)-5-methylpiperazin-2-yl)-2-methyl-N-(4-(pyridin-4-yl)phenyl)-5,8,11,14,17,20,23-heptaoxa-2,26-diazaoctacosan-28-amide]
